What all share (type): ADME
The target in series [1] is T1, Albumin (Homo sapiens, UniProt P02768). The series is described as follows: Binding affinity to HSA assessed as Stern-Volmer quenching constant at 300 K by fluorescence spectrophotometer assay. The note with it: isolated protein.
The target of series [2] is T1, Albumin. The series is described as follows: Binding affinity to HSA assessed as quenching constant at 298 K by fluorescence spectrophotometer assay. Particulars: isolated protein; call rule not given here.
In series [3] the target is T1, Albumin. Kind of series: Binding affinity to HSA assessed as binding constant at 303 K by fluorescence spectrophotometer assay. Particulars: isolated protein.
Series [4] has as its target T1, Albumin. Kind of series: Binding affinity to HSA assessed as causing the change of the microenvironment of tyrosine residue by measuring red shift at 0 to 100 uM after 5 mins by fluorescence based Synchronous fluorescence spectroscopy. The note with it: isolated protein, dose 0-100 µM.
For series [5], the target named is T1, Albumin. The series is described as follows: Binding affinity to HSA assessed as Stern-Volmer quenching constant at 303 K by fluorescence spectrophotometer assay. Particulars: isolated protein.
Series [6] deals with T1, Albumin. The series is described as follows: Binding affinity to HSA […] site assessed as quenching in presence of digitoxin at 0 to 100 uM after 5 mins by fluorescence based site competition assay. Particulars: isolated protein.
Series [7] has as its target T1, Albumin. Kind of series: Binding affinity to HSA assessed as Stern-Volmer quenching constant at 298 K by fluorescence spectrophotometer assay. The note with it: isolated protein.
Series [8] deals with T1, Albumin. The series is described as follows: Binding affinity to HSA assessed as binding constant at 300 K by fluorescence spectrophotometer assay. The note with it: isolated protein.
For series [9], the target named is T1, Albumin. The series is described as follows: Binding affinity to HSA assessed as quenching constant at 303 K by fluorescence spectrophotometer assay. Particulars: isolated protein.
Series [10] deals with T1, Albumin. Kind of series: Binding affinity to HSA assessed as change in entropy at 298 K by Van't Hoff plot analysis. The note with it: isolated protein.
The target in series [11] is T1, Albumin. The series is described as follows: Binding affinity to HSA assessed as quenching constant at 300 K by fluorescence spectrophotometer assay. Particulars: isolated protein.
For series [12], the target named is T1, Albumin. Kind of series: Binding affinity to HSA assessed as binding constant at 298 K by fluorescence spectrophotometer assay. The note with it: isolated protein.
Series [13] addresses T1, Albumin. The series is described as follows: Binding affinity to HSA […] site assessed as quenching in presence of ibuprofen at 0 to 100 uM after 5 mins by fluorescence based site competition assay. Particulars: isolated protein.
For series [14], the target named is T1, Albumin. The series is described as follows: Binding affinity to HSA […] site assessed as quenching in presence of warfarin at 0 to 100 uM after 5 mins by fluorescence based site competition assay. The note with it: isolated protein, dose 0-100 µM.
The target in series [15] is T1, Albumin. Kind of series: Binding affinity to HSA assessed as change in enthalpy at 298 K by Van't Hoff plot analysis. Particulars: isolated protein.
For series [16], the target named is T1, Albumin. The series is described as follows: Binding affinity to HSA assessed as decrease in fluorescence intensity at 100 uM at by fluorescence spectrophotometer assay. Also noted: scale not given: the % may be the effect or the level left. The note with it: isolated protein.

T1 sequence (P02768 whole entry): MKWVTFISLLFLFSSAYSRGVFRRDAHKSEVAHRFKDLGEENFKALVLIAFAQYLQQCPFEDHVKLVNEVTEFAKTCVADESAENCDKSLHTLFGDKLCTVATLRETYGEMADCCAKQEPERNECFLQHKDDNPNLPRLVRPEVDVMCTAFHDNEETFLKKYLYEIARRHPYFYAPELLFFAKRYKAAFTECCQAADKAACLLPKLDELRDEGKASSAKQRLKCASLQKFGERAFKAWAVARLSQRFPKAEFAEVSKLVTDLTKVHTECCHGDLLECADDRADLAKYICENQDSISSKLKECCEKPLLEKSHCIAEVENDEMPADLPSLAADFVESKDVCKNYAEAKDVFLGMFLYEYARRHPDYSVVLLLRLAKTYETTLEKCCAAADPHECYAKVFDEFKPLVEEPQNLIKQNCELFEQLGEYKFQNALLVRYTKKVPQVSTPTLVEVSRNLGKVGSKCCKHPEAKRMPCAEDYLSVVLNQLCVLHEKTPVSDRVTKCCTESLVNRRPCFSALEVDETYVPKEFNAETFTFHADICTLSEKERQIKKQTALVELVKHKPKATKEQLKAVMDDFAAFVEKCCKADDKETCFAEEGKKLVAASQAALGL

`Cc1ccc(-c2nc3ccccc3c(-c3c[nH]c4ccccc34)[n+]2[O-])cc1`: the KSV on Albumin [1] is recorded as 1.39 10^4L/mol; on Albumin [5] it was 1.33 10^4L/mol; at Albumin [7], 1.4 10^4L/mol. For the same compound, the Kq on Albumin [2] is listed as 1.4 10^12L/mol.s; on Albumin [9], 1.33 10^12L/mol.s; on Albumin [11] it was 1.39 10^12L/mol.s. Moreover, the K at Albumin [3] is listed as 1.03 10^4L/mol; on Albumin [8], 1.7 10^4L/mol; at Albumin [12] it was 2.47 10^4L/mol. Also, the Activity is 9 nm at Albumin [4]; “Active” at Albumin [6]; “Active” at Albumin [13]; “Not Active” at Albumin [14]; 49.2% on Albumin [16]. Besides, the deltaS at Albumin [10] was found to be 436 J/mol·K. In addition, on Albumin [15], the deltaH worked out at 139.02 kJ/mol.

These data come from ChEMBL document CHEMBL4665868, “Study on the interaction between 4-(1H-indol-3-yl)-2-(p-tolyl)quinazoline-3-oxide and human serum albumin” (Bioorg Med Chem, 2020).
